{
  "source": "patent US20150105252A1",
  "about": "“SUBSTITUTED PYRAZOLES AS HERBICIDES” (E I DU PONT DE NEMOURS AND COMPANY, priority 2013, published 2015)",
  "key": {"[1]": {"tested_on": "guineagrass", "test": "Test E preemergence", "format": "in vivo, Panicum maximum", "details": "21 days, scale 0 to 100", "excerpt": "(§1) Seeds of plant species selected from bermudagrass (Cynodon dactylon), Surinam grass (Brachiaria decumbens), crabgrass, large (large crabgrass, Digitaria sanguinalis), crabgrass, naked (naked crabgrass, Digitaria nuda), foxtail, green (green foxtail, Setaria viridis), johnsongrass (Sorghum halepense), kochia (Kochia scoparia), morningglory (pitted morningglory, Ipomoea lacunosa), nutsedge, purple (purple nutsedge, Cyperus rotundus), ragweed (common ragweed, Ambrosia elation), mustard, black (black mustard, Brassica nigra), guineagrass (Panicum maximum), dallisgrass (Paspalum dilatatum), barnyardgrass (Echinochloa crus-galli), sandbur (southern sandbur, Cenchrus echinatus), sowthistle (common sowthistle, Sonchus oleraceous), ryegrass, Italian (Italian ryegrass, Lolium multiflorum), signalgrass (broadleaf signalgrass, Brachiaria platyphylla), dayflower, VA (Virginia (VA) dayflower, Commelina virginica), bluegrass (annual bluegrass, Poa annua), quackgrass (Elytrigia repens), mallow (common mallow, Malva sylvestris), buckwheat, wild (wild buckwheat, Polygonum convolvulus), leafy spurge (Euphorbia esula), common chickweed (Stellaria media), wild poinsettia (Euphorbia heterophylla), pigweed, palmer (palmer pigweed, Amaranthus palmeri), and pigweed (redroot pigweed, Amaranthus retroflexus) were planted into a blend of loam soil and sand and treated preemergence with test chemicals formulated in a non-phytotoxic solvent mixture which included a surfactant.\n(§2) Treated plants and controls were maintained in a greenhouse for 21 days, after which time all species were compared to controls and visually evaluated. Plant response ratings, summarized in Table E, are based on a scale of 0 to 100 where 0 is no effect and 100 is complete control. A dash (-) response means no test result."}, "[2]": {"tested_on": "dayflower, VA", "test": "Test E preemergence", "format": "in vivo, Commelina virginica", "details": "21 days, scale 0 to 100", "excerpt": "as §1, §2"}, "[3]": {"tested_on": "mallow", "test": "Test E preemergence", "format": "in vivo, Malva sylvestris", "details": "21 days, scale 0 to 100", "excerpt": "as §1, §2"}, "[4]": {"tested_on": "dallisgrass", "test": "Test E preemergence", "format": "in vivo, Paspalum dilatatum", "details": "21 days, scale 0 to 100", "excerpt": "as §1, §2"}, "[5]": {"tested_on": "hairy beggarticks", "test": "Test F postemergence", "format": "in vivo, Bidens pilosa", "details": "scale 0 to 100", "in_short": "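Test chemicals in a non-phytotoxic solvent with surfactant were applied preemergence to seeds sown in silt loam, or postemergence to plants 2–18 cm tall (1- to 4-leaf stage). Plants were kept in a greenhouse for 14–21 days and then rated visually against controls on a 0 (no effect) to 100 (complete control) scale.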"}, "[6]": {"tested_on": "quackgrass", "test": "Test E preemergence", "format": "in vivo, Elytrigia repens", "details": "21 days, scale 0 to 100", "excerpt": "as §1, §2"}, "[7]": {"tested_on": "morningglory", "test": "Test E preemergence", "format": "in vivo, Ipomoea lacunosa", "details": "21 days, scale 0 to 100", "excerpt": "as §1, §2"}, "[8]": {"tested_on": "common ragweed", "test": "Test A postemergence", "format": "in vivo, Ambrosia elation", "in_short": "(§3)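 Injury readout: eye-scored versus untreated controls, 0 to 100. Exposure period: ~10 days, greenhouse. Application: soil-directed spray over sown seed (pre) or spray on seedlings 2–10 cm tall with one or two leaves (post), compound carried in non-phytotoxic solvent including surfactant.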"}, "[9]": {"tested_on": "Italian ryegrass", "test": "Test A preemergence", "format": "in vivo, Lolium multiflorum", "in_short": "as §3"}, "[10]": {"tested_on": "blackgrass", "test": "Test A postemergence", "format": "in vivo, Alopecurus myosuroides", "in_short": "as §3"}, "[11]": {"details": "Postemergence, 500 g ai/ha, 0 to 100 scale (0 no effect, 100 complete control)"}, "[12]": {"details": "postemergence, 125 g ai/ha, about 10 days, visual rating on 0 to 100 scale (0 no effect, 100 complete control)"}, "[13]": {"details": "125 g ai/ha, visual injury, 0 to 100 scale, approx. 10 days"}, "[14]": {"details": "500 g ai/ha, visual injury after approx. 10 days, 0 to 100 scale (0 no effect, 100 complete control)"}},
  "data": [
    {"compound": "CCCc1cc(C(=O)NCC(F)(F)F)nn1Cc1ccnc(C(F)(F)F)c1", "note": "[Compound 105]", "values": [
      {"measurement": "Plant response rating, Guineagrass", "setting": "[1]; 16 g ai/ha", "result": 75},
      {"measurement": "Plant response rating, Guineagrass", "setting": "[1]; 31 g ai/ha", "result": 90},
      {"measurement": "Plant response rating, Guineagrass", "setting": "[1]; 62 g ai/ha", "result": 100},
      {"measurement": "Plant response rating, Guineagrass", "setting": "[1]; 125 g ai/ha", "result": 100},
      {"measurement": "Plant response rating, Guineagrass", "setting": "[1]; 250 g ai/ha", "result": 100},
      {"measurement": "Plant response rating, Dayflower, VA", "setting": "[2]; 16 g ai/ha", "result": 35},
      {"measurement": "Plant response rating, Dayflower, VA", "setting": "[2]; 31 g ai/ha", "result": 75},
      {"measurement": "Plant response rating, Dayflower, VA", "setting": "[2]; 62 g ai/ha", "result": 95},
      {"measurement": "Plant response rating, Dayflower, VA", "setting": "[2]; 125 g ai/ha", "result": 95},
      {"measurement": "Plant response rating, Dayflower, VA", "setting": "[2]; 250 g ai/ha", "result": 100},
      {"measurement": "Plant response rating, Mallow", "setting": "[3]; 16 g ai/ha", "result": 100},
      {"measurement": "Plant response rating, Mallow", "setting": "[3]; 31 g ai/ha", "result": 100},
      {"measurement": "Plant response rating, Mallow", "setting": "[3]; 62 g ai/ha", "result": 100},
      {"measurement": "Plant response rating, Mallow", "setting": "[3]; 125 g ai/ha", "result": 100},
      {"measurement": "Plant response rating, Mallow", "setting": "[3]; 250 g ai/ha", "result": 100},
      {"measurement": "Plant response rating, Dallisgrass", "setting": "[4]; 16 g ai/ha", "result": 20},
      {"measurement": "Plant response rating, Dallisgrass", "setting": "[4]; 31 g ai/ha", "result": 95},
      {"measurement": "Plant response rating, Dallisgrass", "setting": "[4]; 62 g ai/ha", "result": 100},
      {"measurement": "Plant response rating, Dallisgrass", "setting": "[4]; 125 g ai/ha", "result": 100},
      {"measurement": "Plant response rating, Dallisgrass", "setting": "[4]; 250 g ai/ha", "result": 100},
      {"measurement": "Plant response rating, Hairy Beggarticks", "setting": "[5]; Postemergence, 31 g ai/ha", "result": 40},
      {"measurement": "Plant response rating, Hairy Beggarticks", "setting": "[5]; Postemergence, 125 g ai/ha", "result": 50},
      {"measurement": "Plant response rating, Hairy Beggarticks", "setting": "[5]; Postemergence, 250 g ai/ha", "result": 70},
      {"measurement": "Plant response rating, Hairy Beggarticks", "setting": "[5]; postemergence, 62 g ai/ha", "result": 50},
      {"measurement": "Plant response rating, Hairy Beggarticks", "setting": "[5]; postemergence, 500 g ai/ha", "result": 85},
      {"measurement": "Plant response rating, Quackgrass", "setting": "[6]; 16 g ai/ha", "result": 65},
      {"measurement": "Plant response rating, Quackgrass", "setting": "[6]; 31 g ai/ha", "result": 90},
      {"measurement": "Plant response rating, Quackgrass", "setting": "[6]; 62 g ai/ha", "result": 98},
      {"measurement": "Plant response rating, Quackgrass", "setting": "[6]; 125 g ai/ha", "result": 100},
      {"measurement": "Plant response rating, Quackgrass", "setting": "[6]; 250 g ai/ha", "result": 100},
      {"measurement": "Plant response rating, Morningglory", "setting": "[7]; 16 g ai/ha", "result": 100},
      {"measurement": "Plant response rating, Morningglory", "setting": "[7]; 31 g ai/ha", "result": 100},
      {"measurement": "Plant response rating, Morningglory", "setting": "[7]; 62 g ai/ha", "result": 100},
      {"measurement": "Plant response rating, Morningglory", "setting": "[7]; 125 g ai/ha", "result": 100},
      {"measurement": "Plant response rating, Morningglory", "setting": "[7]; 250 g ai/ha", "result": 100}
    ]},
    {"compound": "CCONC(=O)c1cc(CC)n(Cc2cc(C(F)(F)F)no2)n1", "note": "[Compound 125]", "values": [
      {"measurement": "Common Ragweed plant response rating", "setting": "[8]; [11]", "result": 60},
      {"measurement": "Common Ragweed plant response rating", "setting": "[8]; [12]", "result": 20},
      {"measurement": "Italian Ryegrass plant response rating", "setting": "[9]; [13]", "result": 20},
      {"measurement": "Italian Ryegrass plant response rating", "setting": "[9]; [14]", "result": 100},
      {"measurement": "Blackgrass plant response rating", "setting": "[10]; [11]", "result": 90},
      {"measurement": "Blackgrass plant response rating", "setting": "[10]; [12]", "result": 30}
    ]},
    {"compound": "CCOc1cc(C(=O)NC2CC2)nn1Cc1ccnc(OC(F)F)c1", "note": "[Compound 133]", "values": [
      {"measurement": "Common Ragweed plant response rating", "setting": "[8]; [11]", "result": 100},
      {"measurement": "Common Ragweed plant response rating", "setting": "[8]; [12]", "result": 60},
      {"measurement": "Italian Ryegrass plant response rating", "setting": "[9]; [13]", "result": 40},
      {"measurement": "Italian Ryegrass plant response rating", "setting": "[9]; [14]", "result": 90},
      {"measurement": "Blackgrass plant response rating", "setting": "[10]; [11]", "result": 100},
      {"measurement": "Blackgrass plant response rating", "setting": "[10]; [12]", "result": 90}
    ]},
    {"compound": "CCc1cc(C(=O)NCC(F)(F)F)nn1Cc1cc(OC(F)F)nn1C", "note": "[Compound 206]", "values": [
      {"measurement": "Common Ragweed plant response rating", "setting": "[8]; [11]", "result": 30},
      {"measurement": "Common Ragweed plant response rating", "setting": "[8]; [12]", "result": 0},
      {"measurement": "Italian Ryegrass plant response rating (0 to 100 scale)", "setting": "[9]; 125 g ai/ha, visual injury approx. 10 days after treatment", "result": 0},
      {"measurement": "Italian Ryegrass plant response rating", "setting": "[9]; [14]", "result": 20},
      {"measurement": "Blackgrass plant response rating", "setting": "[10]; [11]", "result": 50},
      {"measurement": "Blackgrass plant response rating", "setting": "[10]; [12]", "result": 0}
    ]}
  ]
}
